Measured values from patent publication US9884018B2, “Mesalamine suppository” (Aptalis Pharma Canada Inc., priority 2007, dated 2018).
Blank lines part the entries; values can stand above or below the compound they belong to.

Experiments:
Type in all cases: physicochemical
[1] = Tap density of mesalamine powder by USP tapped density test <616>; conditions: for Mesalamine Tap Density: mesalamine lot used for the molten mixture, Table 9; for Tapped Density: mesalamine powder lot, Table 8; for TD (measured tapped density): individual mesalamine lot used in combination, Table 10
Protocol: Unless otherwise specified, tap density is measured by the USP tapped density test <616>.
The individual tap densities of each mesalamine lot were used to calculate a composite tapped density (CTD) based on the amount of each lot. The calculated CTD can be expressed by the following equation: (CDF)i+(CDF)2 + . . . (CDF)n=CTD where CTD=composite tapped density: CDF=contributed density factor=% of total drug used/100×TD; TD=measured tapped density; and n=number of drug lots used.

[2] = Viscosity of molten mixture of mesalamine and hard fat; conditions: molten mixture prepared from the mesalamine lot, Table 11
[3] = as above; conditions: in-process molten mixture of mesalamine and hard fat
Protocol: Molten mixtures were prepared by the procedure described in Example 1 using mesalamine lots A, B, and E, The molten mixtures had the viscosities reported in Table 9 below.
The in-process molten mixtures of mesalamine and hard fat used in the preparation of the suppositories described above with respect to FIGS. 4 to 6 had the viscosities reported in Table 12 below. Suppositories could not be made from Grades C and D from supplier 2.

Mesalamine Tap Density ([1]; listed as A): 0.81 g/mL
Tapped Density ([1]; listed as A): 0.81 g/mL
Compound: Nc1ccc(O)c(C(=O)O)c1 [Mesalamine Lot A, mesalamine]

Mesalamine Tap Density ([1]; listed as B): 0.72 g/mL
Tapped Density ([1]; listed as B): 0.72 g/mL
Compound: Nc1ccc(O)c(C(=O)O)c1 [Mesalamine Lot B, mesalamine]

TD (measured tapped density) ([1]; listed as C): 0.68 g/mL
Tapped Density ([1]; listed as C): 0.68 g/mL
Compound: Nc1ccc(O)c(C(=O)O)c1 [Mesalamine Lot C, mesalamine]

TD (measured tapped density) ([1]; listed as D): 0.37 g/mL
Tapped Density ([1]; listed as D): 0.39 g/mL
Compound: Nc1ccc(O)c(C(=O)O)c1 [Mesalamine Lot D, mesalamine]

TD (measured tapped density) ([1]; listed as E): 0.68 g/mL
Mesalamine Tap Density ([1]; listed as E): 0.68 g/mL
Tapped Density ([1]; listed as E): 0.68 g/mL
Compound: Nc1ccc(O)c(C(=O)O)c1 [Mesalamine Lot E, mesalamine]

TD (measured tapped density) ([1]; listed as F): 0.46 g/mL
Tapped Density ([1]; listed as F): 0.46 g/mL
Compound: Nc1ccc(O)c(C(=O)O)c1 [Mesalamine Lot F, mesalamine]

TD (measured tapped density) ([1]; listed as G): 0.60 g/mL
Tapped Density ([1]; listed as G): 0.60 g/mL
Compound: Nc1ccc(O)c(C(=O)O)c1 [Mesalamine Lot G, mesalamine]

Viscosity ([2]; listed as 7): 37830 cps
Tap Density ([1]; mesalamine lot nos. 1-8, Table 11, listed as 7): 0.36 g/mL
Compound: Nc1ccc(O)c(C(=O)O)c1 [Mesalamine Lot No. 7, mesalamine]

Viscosity ([2]; listed as 8): 33735 cps
Tap Density ([1]; mesalamine lot nos. 1-8, Table 11, listed as 8): 0.37 g/mL
Compound: Nc1ccc(O)c(C(=O)O)c1 [Mesalamine Lot No. 8, mesalamine]

Dispersion Viscosity ([3]; Drug Load 33% w/w): 694 Cps
Dispersion Viscosity ([3]; Drug Load 37% w/w): 1131 Cps
Dispersion Viscosity ([3]; Drug Load 42% w/w): 2512 Cps
Compound: Nc1ccc(O)c(C(=O)O)c1 [Supplier 1, mesalamine]

Dispersion Viscosity ([3]; Drug Load 33% w/w): 595 Cps
Dispersion Viscosity ([3]; Drug Load 37% w/w): 1084 Cps
Dispersion Viscosity ([3]; Drug Load 42% w/w): 2553 Cps
Compound: Nc1ccc(O)c(C(=O)O)c1 [Supplier 2, grade A, mesalamine]

Dispersion Viscosity ([3]; Drug Load 33% w/w): 515 Cps
Dispersion Viscosity ([3]; Drug Load 37% w/w): 845 Cps
Dispersion Viscosity ([3]; Drug Load 42% w/w): 1911 Cps
Compound: Nc1ccc(O)c(C(=O)O)c1 [Supplier 2, grade B, mesalamine]

Tap Density ([1]; mesalamine by source, Table 12): 0.00058 g/mL
Dispersion Viscosity ([3]; Drug Load 33% w/w): Too Viscous
Compound: Nc1ccc(O)c(C(=O)O)c1 [Supplier 2, grade C, mesalamine]

Dispersion Viscosity ([3]; Drug Load 33% w/w): Poor
Compound: Nc1ccc(O)c(C(=O)O)c1 [Supplier 2, grade D, mesalamine]
